Source: ChEMBL document CHEMBL1146014, “Design and synthesis of selective alpha1B adrenoceptor antagonists” (Bioorg Med Chem Lett, 2006)

Key:
[1] = target: T1, Alpha-1A adrenergic receptor (Rattus norvegicus, UniProt P43140); test: Displacement of [3H]prazosin from adrenergic alpha-1A receptor in rat submaxillary gland membranes; format: cell membranes, Membrane
T1 sequence (P43140 whole entry): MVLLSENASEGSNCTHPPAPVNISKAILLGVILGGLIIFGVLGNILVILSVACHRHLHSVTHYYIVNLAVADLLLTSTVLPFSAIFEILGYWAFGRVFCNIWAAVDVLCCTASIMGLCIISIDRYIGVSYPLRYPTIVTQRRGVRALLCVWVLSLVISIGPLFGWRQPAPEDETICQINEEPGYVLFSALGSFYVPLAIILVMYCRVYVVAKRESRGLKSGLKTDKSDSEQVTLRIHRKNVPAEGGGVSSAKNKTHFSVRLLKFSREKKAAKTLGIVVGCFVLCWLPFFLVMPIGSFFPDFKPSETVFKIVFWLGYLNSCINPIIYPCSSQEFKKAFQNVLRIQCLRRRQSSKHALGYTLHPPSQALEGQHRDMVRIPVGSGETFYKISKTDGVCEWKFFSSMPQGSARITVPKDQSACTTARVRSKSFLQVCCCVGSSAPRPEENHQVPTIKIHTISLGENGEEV

[2] = target: T2, Alpha-1B adrenergic receptor (Rattus norvegicus, UniProt P15823); test: Displacement of [3H]prazosin from adrenergic alpha-1B receptor in rat liver membranes; format: cell membranes, Membrane
T2 sequence (P15823 whole entry): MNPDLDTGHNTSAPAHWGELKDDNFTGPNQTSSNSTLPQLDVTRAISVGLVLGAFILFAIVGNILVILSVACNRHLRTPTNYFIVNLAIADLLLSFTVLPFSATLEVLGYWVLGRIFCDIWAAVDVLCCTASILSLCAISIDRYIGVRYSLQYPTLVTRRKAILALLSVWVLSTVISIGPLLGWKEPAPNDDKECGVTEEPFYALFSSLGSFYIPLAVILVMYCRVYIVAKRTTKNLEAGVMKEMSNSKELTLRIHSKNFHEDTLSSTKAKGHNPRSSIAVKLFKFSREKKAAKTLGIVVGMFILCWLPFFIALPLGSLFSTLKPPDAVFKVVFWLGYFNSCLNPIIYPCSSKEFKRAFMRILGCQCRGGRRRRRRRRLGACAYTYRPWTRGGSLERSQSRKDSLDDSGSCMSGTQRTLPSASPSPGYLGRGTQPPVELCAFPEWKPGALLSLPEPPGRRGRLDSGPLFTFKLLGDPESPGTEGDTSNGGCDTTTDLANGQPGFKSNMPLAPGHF

[3] = target: T3, Alpha-1D adrenergic receptor (Homo sapiens, UniProt P25100); test: Binding affinity to human adrenergic Alpha-1D receptor
T3 sequence (P25100 whole entry): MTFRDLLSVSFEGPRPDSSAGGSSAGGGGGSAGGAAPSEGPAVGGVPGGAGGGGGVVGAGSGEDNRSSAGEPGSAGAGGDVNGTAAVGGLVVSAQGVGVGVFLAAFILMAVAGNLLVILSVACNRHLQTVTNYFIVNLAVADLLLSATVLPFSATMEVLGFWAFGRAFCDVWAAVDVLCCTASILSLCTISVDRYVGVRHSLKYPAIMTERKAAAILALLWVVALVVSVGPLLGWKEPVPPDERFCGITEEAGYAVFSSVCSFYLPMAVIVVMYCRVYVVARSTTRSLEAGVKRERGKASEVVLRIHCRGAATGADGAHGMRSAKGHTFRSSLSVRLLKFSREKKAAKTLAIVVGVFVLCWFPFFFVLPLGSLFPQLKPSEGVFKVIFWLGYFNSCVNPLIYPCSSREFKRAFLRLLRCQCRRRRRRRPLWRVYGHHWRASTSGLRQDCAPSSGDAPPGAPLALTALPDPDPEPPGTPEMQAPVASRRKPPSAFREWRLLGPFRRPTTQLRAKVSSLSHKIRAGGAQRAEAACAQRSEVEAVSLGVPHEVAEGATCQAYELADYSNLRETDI

[4] = target: T4, Adrenergic receptor alpha-2 (Rattus norvegicus, UniProt P22086+P19328+P22909); test: Binding affinity to rat adrenergic alpha2 receptor; format: protein assay
T4 sequence (P22086 whole entry): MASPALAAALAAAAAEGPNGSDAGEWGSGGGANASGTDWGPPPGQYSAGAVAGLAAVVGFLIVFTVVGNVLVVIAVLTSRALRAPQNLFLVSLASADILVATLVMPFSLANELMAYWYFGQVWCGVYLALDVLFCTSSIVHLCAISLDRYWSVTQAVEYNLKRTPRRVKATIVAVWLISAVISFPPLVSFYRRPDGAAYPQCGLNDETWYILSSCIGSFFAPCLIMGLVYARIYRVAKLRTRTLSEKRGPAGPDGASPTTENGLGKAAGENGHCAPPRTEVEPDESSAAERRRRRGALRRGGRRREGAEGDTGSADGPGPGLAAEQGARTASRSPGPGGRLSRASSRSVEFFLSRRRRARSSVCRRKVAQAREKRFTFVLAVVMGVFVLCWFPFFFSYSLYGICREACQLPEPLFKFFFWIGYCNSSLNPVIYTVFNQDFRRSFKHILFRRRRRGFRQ
T4 sequence (P19328 whole entry): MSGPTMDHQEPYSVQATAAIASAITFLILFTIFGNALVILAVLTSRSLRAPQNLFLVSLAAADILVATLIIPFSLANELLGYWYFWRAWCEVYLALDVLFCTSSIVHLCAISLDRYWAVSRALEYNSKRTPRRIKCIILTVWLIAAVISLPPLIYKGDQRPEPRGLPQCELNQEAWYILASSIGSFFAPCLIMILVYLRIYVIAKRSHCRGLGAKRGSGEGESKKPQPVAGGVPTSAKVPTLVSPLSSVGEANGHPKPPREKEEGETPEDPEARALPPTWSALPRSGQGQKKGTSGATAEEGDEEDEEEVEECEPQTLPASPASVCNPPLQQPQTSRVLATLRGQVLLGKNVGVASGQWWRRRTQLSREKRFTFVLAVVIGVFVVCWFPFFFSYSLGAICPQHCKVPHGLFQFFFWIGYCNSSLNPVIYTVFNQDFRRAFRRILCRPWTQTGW
T4 sequence (P22909 whole entry): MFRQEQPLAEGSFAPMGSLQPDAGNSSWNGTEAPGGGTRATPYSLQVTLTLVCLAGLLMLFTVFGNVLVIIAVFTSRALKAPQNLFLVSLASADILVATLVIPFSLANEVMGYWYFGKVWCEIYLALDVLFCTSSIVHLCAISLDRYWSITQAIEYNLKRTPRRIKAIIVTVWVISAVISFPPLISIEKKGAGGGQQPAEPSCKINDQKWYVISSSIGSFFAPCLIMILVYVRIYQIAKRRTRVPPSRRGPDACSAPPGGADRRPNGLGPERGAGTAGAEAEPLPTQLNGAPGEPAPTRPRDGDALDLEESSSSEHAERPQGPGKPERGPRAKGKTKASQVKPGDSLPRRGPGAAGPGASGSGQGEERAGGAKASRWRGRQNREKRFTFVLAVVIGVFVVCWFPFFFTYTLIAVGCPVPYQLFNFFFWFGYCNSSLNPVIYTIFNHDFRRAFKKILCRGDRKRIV

[5] = target: Adrenergic receptor beta (Rattus norvegicus, UniProt P18090+P10608+P26255); test: Binding affinity to rat adrenergic beta receptor; format: protein assay

SMILES | Ki [1] [nM] | Ki [2] [nM] | Ki [3] [nM] | Ki [4] [nM] | Ki [5] [nM]
c1ccc2c(C3CCN(CCCN4CCCCC4)CC3)noc2c1 | 57 | 14 |  |  | 
c1ccc2c(C3CCN(CCCN4CCCCC4)CC3)coc2c1 | 60 | 7.7 |  |  | 
Cc1[nH]c2ccccc2c1C1CCN(CCCN2CCCCC2)CC1 | 1900 | 71 |  |  | 
Oc1nc2ccccc2n1C1CCN(CCCN2CCCCC2)CC1 | 900 | 70 |  |  | 
Cl.Cl.c1ccc2c(C3CCN(CCCN4CCCCC4)CC3)c[nH]c2c1 | 120 | 3 | 69 | 370 | > 1000
Cn1cc(C2CCN(CCCN3CCCCC3)CC2)c2ccccc21 | 480 | 60 |  |  | 
Cl.Cl.c1ccc2c(C3CCN(CCCCCN4CCCCC4)CC3)c[nH]c2c1 |  |  | 37 | 355 | > 1000
c1ccc(CC2CCN(CCCN3CCCCC3)CC2)cc1 |  | 1120 |  |  | 
Fc1ccc2[nH]cc(C3CCN(CCCN4CCCCC4)CC3)c2c1 | 690 | 16 |  |  | 
Cl.Cl.Fc1ccc2c(C3CCN(CCCN4CCCCC4)CC3)c[nH]c2c1 |  |  | 22 | 140 | > 1000
c1ccc2c(C3CCN(CCCCN4CCCCC4)CC3)c[nH]c2c1 | 56 | 1.1 |  |  | 
